Results as given in patent publication US10377753B2, “Substituted 4-azaindoles and their use as GluN2B receptor modulators” (Janssen Pharmaceutica NV, priority 2015, dated 2019).
Structures can show the parent of a compound that is named as a salt.

Biological target: cloned human NR1/NR2B ion channels (Homo sapiens (Human), UniProt Q05586+Q13224)
Test: HNR2BC: effects of test articles on cloned human NR1/NR2B ion channels expressed in mammalian cells (FLIPR calcium flux)
Assay type: cell-based
Conditions: cloned human NR1/NR2B, Table 5
Outline: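 In a stable Tet-On-induced cell line expressing human GluN1/GluN2B, Calcium 5-loaded cells were preincubated 5 min with compound, then stimulated 5 min with glutamate at ~EC80 plus 10 μM glycine, in pH 7.4 HEPES buffer. FLIPR calcium fluorescence was normalized to control wells.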

Sequence of cloned human NR1/NR2B ion channels (Q13224 27-1484, other chains not shown): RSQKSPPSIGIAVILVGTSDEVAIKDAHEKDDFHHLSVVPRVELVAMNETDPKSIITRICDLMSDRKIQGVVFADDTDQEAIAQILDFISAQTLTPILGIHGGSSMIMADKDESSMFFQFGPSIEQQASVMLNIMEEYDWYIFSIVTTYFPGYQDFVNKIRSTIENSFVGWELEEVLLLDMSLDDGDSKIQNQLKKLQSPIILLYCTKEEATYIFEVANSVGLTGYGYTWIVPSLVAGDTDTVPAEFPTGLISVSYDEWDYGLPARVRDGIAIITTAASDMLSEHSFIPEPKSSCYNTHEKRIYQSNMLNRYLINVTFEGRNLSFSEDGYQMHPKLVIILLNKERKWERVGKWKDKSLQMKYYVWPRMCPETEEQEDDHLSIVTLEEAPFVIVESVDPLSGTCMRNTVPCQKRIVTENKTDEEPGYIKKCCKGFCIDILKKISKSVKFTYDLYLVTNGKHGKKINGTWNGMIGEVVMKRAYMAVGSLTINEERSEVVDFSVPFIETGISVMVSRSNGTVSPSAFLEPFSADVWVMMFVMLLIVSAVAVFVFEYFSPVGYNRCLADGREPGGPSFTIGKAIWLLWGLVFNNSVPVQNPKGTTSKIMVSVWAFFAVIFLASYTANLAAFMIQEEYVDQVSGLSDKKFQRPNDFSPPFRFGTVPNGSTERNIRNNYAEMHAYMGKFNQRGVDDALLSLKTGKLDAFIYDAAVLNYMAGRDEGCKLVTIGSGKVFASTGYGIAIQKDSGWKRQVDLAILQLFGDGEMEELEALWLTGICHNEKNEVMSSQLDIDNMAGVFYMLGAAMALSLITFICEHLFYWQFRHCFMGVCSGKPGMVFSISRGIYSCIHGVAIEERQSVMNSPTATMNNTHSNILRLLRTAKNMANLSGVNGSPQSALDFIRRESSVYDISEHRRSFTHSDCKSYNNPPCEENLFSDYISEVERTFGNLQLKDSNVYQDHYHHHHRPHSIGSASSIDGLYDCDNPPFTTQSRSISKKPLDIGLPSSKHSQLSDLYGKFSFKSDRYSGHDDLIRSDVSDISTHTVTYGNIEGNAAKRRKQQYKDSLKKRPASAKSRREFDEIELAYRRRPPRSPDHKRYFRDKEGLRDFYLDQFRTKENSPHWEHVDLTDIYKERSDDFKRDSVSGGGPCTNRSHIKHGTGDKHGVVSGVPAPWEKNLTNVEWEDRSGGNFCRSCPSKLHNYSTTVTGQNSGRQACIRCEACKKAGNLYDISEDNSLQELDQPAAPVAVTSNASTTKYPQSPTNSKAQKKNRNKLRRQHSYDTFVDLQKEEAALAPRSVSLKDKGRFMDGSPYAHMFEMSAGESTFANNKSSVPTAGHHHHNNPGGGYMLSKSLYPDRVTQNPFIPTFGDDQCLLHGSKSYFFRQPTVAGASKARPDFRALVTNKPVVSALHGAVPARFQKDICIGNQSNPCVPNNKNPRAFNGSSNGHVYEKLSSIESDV

Row | pIC50 | IC50 | SMILES
1 | 7.7 |  | Cc1csc(-c2cnc3ccn(Cc4ccc(C(F)(F)F)o4)c3c2)c1 [Example 137, 6-(4-Methyl-2-thienyl)-1-[[5-(trifluoromethyl)-2-furyl]methyl]pyrrolo[3,2-b]pyridine]
2 |  | 31.6 nM | CC(C)(C)C(=O)Cn1ccc2ncc(-c3ccc(F)c(F)c3)cc21 [Example 140, 1-[6-(3,4-Difluorophenyl)pyrrolo[3,2-b]pyridin-1-yl]-3,3-dimethyl-butan-2-one]
3 |  | 398 nM | Cc1cc(-c2cnc3ccn(CC(=O)C(C)(C)C)c3c2)ccc1F [Example 141, 1-[6-(4-Fluoro-3-methyl-phenyl)pyrrolo[3,2-b]pyridin-1-yl]-3,3-dimethyl-butan-2-one]
4 |  | 501 nM | CC(C)(C)C(=O)Cn1ccc2ncc(-c3cc(F)cc(F)c3)cc21 [Example 142, 1-[6-(3,5-Difluorophenyl)pyrrolo[3,2-b]pyridin-1-yl]-3,3-dimethyl-butan-2-one]
5 |  | 794 nM | Cc1csc(-c2cnc3ccn(CC(=O)C(C)(C)C)c3c2)c1 [Example 143, 3,3-Dimethyl-1-[6-(4-methyl-2-thienyl)pyrrolo[3,2-b]pyridin-1-yl]butan-2-one]
6 |  | 2000 nM | CC(C)(C)C(=O)Cn1ccc2ncc(-c3cccc(C(F)F)c3)cc21 [Example 144, 1-[6-[3-(Difluoromethyl)phenyl]pyrrolo[3,2-b]pyridin-1-yl]-3,3-dimethyl-butan-2-one]
7 |  | 501 nM | CCc1cccc(-c2cnc3ccn(CC(=O)C(C)(C)C)c3c2)c1 [Example 145, 1-[6-(3-Ethylphenyl)pyrrolo[3,2-b]pyridin-1-yl]-3,3-dimethyl-butan-2-one]
8 |  | 1000 nM | Cc1cc(-c2cnc3c(Cl)cn(CC(=O)N(C)C)c3c2)ccc1F [Example 146, 2-[3-Chloro-6-(4-fluoro-3-methyl-phenyl)pyrrolo[3,2-b]pyridin-1-yl]-N,N-dimethyl-acetamide]
9 |  | 50.1 nM | CN(C)C(=O)Cn1cc(Cl)c2ncc(-c3ccc(F)c(F)c3)cc21 [Example 147, 2-[3-Chloro-6-(3,4-difluorophenyl)pyrrolo[3,2-b]pyridin-1-yl]-N,N-dimethyl-acetamide]
10 |  | 50.1 nM | CN(C)C(=O)Cn1cc(Cl)c2ncc(-c3cc(F)cc(F)c3)cc21 [Example 148, 2-[3-Chloro-6-(3,5-difluorophenyl)pyrrolo[3,2-b]pyridin-1-yl]-N,N-dimethyl-acetamide]
11 |  | 50.1 nM | Cc1csc(-c2cnc3c(Cl)cn(CC(=O)N(C)C)c3c2)c1 [Example 149, 2-[3-Chloro-6-(4-methyl-2-thienyl)pyrrolo[3,2-b]pyridin-1-yl]-N,N-dimethyl-acetamide]
12 | 7.3 |  | CN(C)C(=O)Cn1cc(Cl)c2ncc(-c3cccc(C(F)F)c3)cc21 [Example 150, 2-[3-Chloro-6-[3-(difluoromethyl)phenyl]pyrrolo[3,2-b]pyridin-1-yl]-N,N-dimethyl-acetamide]
13 |  | 79.4 nM | CCc1cccc(-c2cnc3c(Cl)cn(CC(=O)N(C)C)c3c2)c1 [Example 151, 2-[3-Chloro-6-(3-ethylphenyl)pyrrolo[3,2-b]pyridin-1-yl]-N,N-dimethyl-acetamide]
14 |  | 100 nM | CN(C)C(=O)Cn1cc(Cl)c2ncc(-c3cc(F)c(F)c(F)c3)cc21 [Example 152, 2-[3-Chloro-6-(3,4,5-trifluorophenyl)pyrrolo[3,2-b]pyridin-1-yl]-N,N-dimethyl-acetamide]
15 |  | 63.1 nM | Cc1csc(-c2cnc3ccn(CC(=O)NC4CC4)c3c2)c1 [Example 153, N-Cyclopropyl-2-[6-(4-methyl-2-thienyl)pyrrolo[3,2-b]pyridin-1-yl]acetamide trifluoroacetate salt]
16 |  | 398 nM | Cc1cccc(-c2cnc3ccn(CC(=O)NC4CC4)c3c2)c1C [Example 154, N-Cyclopropyl-2-[6-(2,3-dimethylphenyl)pyrrolo[3,2-b]pyridin-1-yl]acetamide trifluoroacetate salt]
17 |  | 251 nM | Cc1cccc(-c2cnc3ccn(CC(=O)NC4CC4)c3c2)c1 [Example 155, N-Cyclopropyl-2-[6-(m-tolyl)pyrrolo[3,2-b]pyridin-1-yl]acetamide trifluoroacetate salt]
18 |  | 200 nM | O=C(Cn1ccc2ncc(-c3ccc(Cl)c(Cl)c3)cc21)NC1CC1 [Example 156, N-Cyclopropyl-2-[6-(3,4-dichlorophenyl)pyrrolo[3,2-b]pyridin-1-yl]acetamide trifluoroacetate salt]
19 |  | 251 nM | Cc1c(-c2cnc3ccn(CC(=O)NC4CC4)c3c2)cccc1C(F)(F)F [Example 157, N-Cyclopropyl-2-[6-[2-methyl-3-(trifluoromethyl)phenyl]pyrrolo[3,2-b]pyridin-1-yl]acetamide trifluoroacetate salt]
20 |  | 631 nM | O=C(Cn1ccc2ncc(-c3ccccc3)cc21)NC1CC1 [Example 158, N-Cyclopropyl-2-(6-phenylpyrrolo[3,2-b]pyridin-1-yl)acetamide trifluoroacetate salt]

Row | pIC50 | IC50 | SMILES
21 |  | 251 nM | Cc1c(F)ccc(-c2cnc3ccn(CC(=O)NC4CC4)c3c2)c1C [Example 159, N-Cyclopropyl-2-[6-(4-fluoro-2,3-dimethyl-phenyl)pyrrolo[3,2-b]pyridin-1-yl]acetamide trifluoroacetate salt]
22 |  | 200 nM | Cc1ccccc1-c1cnc2ccn(CC(=O)NC3CC3)c2c1 [Example 160, N-Cyclopropyl-2-[6-(o-tolyl)pyrrolo[3,2-b]pyridin-1-yl]acetamide]
23 |  | 200 nM | Cc1cc(F)ccc1-c1cnc2ccn(CC(=O)NC3CC3)c2c1 [Example 161, N-Cyclopropyl-2-[6-(4-fluoro-2-methyl-phenyl)pyrrolo[3,2-b]pyridin-1-yl]acetamide trifluoroacetate salt]
24 |  | 100 nM | Cc1ccccc1-c1cnc2ccn(CC(=O)N3CCC3)c2c1 [Example 162, 1-(Azetidin-1-yl)-2-[6-(o-tolyl)pyrrolo[3,2-b]pyridin-1-yl]ethanone trifluoroacetate salt]
25 |  | 79.4 nM | Cc1cc(F)ccc1-c1cnc2ccn(CC(=O)N3CCC3)c2c1 [Example 163, 1-(Azetidin-1-yl)-2-[6-(4-fluoro-2-methyl-phenyl)pyrrolo[3,2-b]pyridin-1-yl]ethanone trifluoroacetate salt]
26 |  | 63.1 nM | Cc1c(F)ccc(-c2cnc3ccn(CC(=O)N4CCC4)c3c2)c1C [Example 164, 1-(Azetidin-1-yl)-2-[6-(4-fluoro-2,3-dimethyl-phenyl)pyrrolo[3,2-b]pyridin-1-yl]ethanone trifluoroacetate salt]
27 |  | 63.1 nM | Cc1cccc(-c2cnc3ccn(CC(=O)N4CCC4)c3c2)c1C [Example 165, 1-(Azetidin-1-yl)-2-[6-(2,3-dimethylphenyl)pyrrolo[3,2-b]pyridin-1-yl]ethanone trifluoroacetate salt]
28 |  | 39.8 nM | Cc1c(-c2cnc3ccn(CC(=O)N4CCC4)c3c2)cccc1C(F)(F)F [Example 167, 1-(Azetidin-1-yl)-2-[6-[2-methyl-3-(trifluoromethyl)phenyl]pyrrolo[3,2-b]pyridin-1-yl]ethanone trifluoroacetate salt]
29 |  | 251 nM | O=C(Cn1ccc2ncc(-c3ccc(F)cc3)cc21)NC1CC1 [Example 168, N-Cyclopropyl-2-[6-(4-fluorophenyl)pyrrolo[3,2-b]pyridin-1-yl]acetamide]
30 |  | 200 nM | Cc1cc(-c2cnc3c(C)cn(CC(=O)N4CCC4)c3c2)ccc1F [Example 169, 1-(Azetidin-1-yl)-2-[6-(4-fluoro-3-methyl-phenyl)-3-methyl-pyrrolo[3,2-b]pyridin-1-yl]ethanone trifluoroacetate salt]
31 |  | 316 nM | CCCCn1ccc2ncc(-c3ccc(F)c(C)c3)cc21 [Example 170, 1-Butyl-6-(4-fluoro-3-methyl-phenyl)pyrrolo[3,2-b]pyridine trifluoroacetate salt]
32 |  | 200 nM | Cc1cc(-c2cnc3ccn(CCC(C)C)c3c2)ccc1F [Example 171, 6-(4-Fluoro-3-methyl-phenyl)-1-isopentyl-pyrrolo[3,2-b]pyridine trifluoroacetate salt]
33 |  | 794 nM | Cc1cc(-c2cnc3ccn(Cc4cccnc4)c3c2)ccc1F [Example 172, 6-(4-Fluoro-3-methyl-phenyl)-1-(3-pyridylmethyl)pyrrolo[3,2-b]pyridine trifluoroacetate salt]
34 |  | 158 nM | Cc1cc(-c2cnc3ccn(CC4CC4)c3c2)ccc1F [Example 174, 1-(Cyclopropylmethyl)-6-(4-fluoro-3-methyl-phenyl)pyrrolo[3,2-b]pyridine trifluoroacetate salt]
35 |  | 31.6 nM | Cc1cc(-c2cnc3c(Cl)cn(CC(=O)NC4CC4)c3c2)ccc1F [Example 176, 2-[3-Chloro-6-(4-fluoro-3-methyl-phenyl)pyrrolo[3,2-b]pyridin-1-yl]-N-cyclopropyl-acetamide trifluoroacetate salt]
36 |  | 50.1 nM | Cc1cc(-c2cnc3ccn(Cc4ccncc4)c3c2)ccc1F [Example 179, 6-(4-Fluoro-3-methyl-phenyl)-1-(4-pyridylmethyl)pyrrolo[3,2-b]pyridine trifluoroacetate salt]
37 |  | 794 nM | Cc1cc(-c2cnc3ccn(CCn4cccn4)c3c2)ccc1F [Example 181, 6-(4-Fluoro-3-methyl-phenyl)-1-(2-pyrazol-1-ylethyl)pyrrolo[3,2-b]pyridine trifluoroacetate salt]
38 |  | 3980 nM | O=C(Cn1cc(F)c2ncc(-c3ccc(Cl)s3)cc21)N1CCC1 [Example 182, 1-(Azetidin-1-yl)-2-[6-(5-chloro-2-thienyl)-3-fluoro-pyrrolo[3,2-b]pyridin-1-yl]ethanone]
39 |  | 31.6 nM | Cc1cc(-c2cnc3ccn(Cc4ncccn4)c3c2)ccc1F [Example 183, 6-(4-Fluoro-3-methyl-phenyl)-1-(pyrimidin-2-ylmethyl)pyrrolo[3,2-b]pyridine trifluoroacetate salt]
40 |  | 100 nM | Cc1cc(-c2cnc3c(F)cn(CC(=O)N4CC(F)(F)C4)c3c2)ccc1F [Example 185, 1-(3,3-Difluoroazetidin-1-yl)-2-[3-fluoro-6-(4-fluoro-3-methyl-phenyl)pyrrolo[3,2-b]pyridin-1-yl]ethanone]
